Assay results as given in the supplement of paper PMC11061612.

How the values were obtained:
Test in all cases: combination Emax (second highest fraction inhibited in the dose matrix, 72 h); higher = more inhibition; extreme values may be limits of the assay
[1] = system: KYSE-410 (Esophageal Squamous Cell Carcinoma)
Procedure, shortened: (§1)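 Cell lines grown in DMEM/F12 or RPMI with 10% FBS were plated in 1536-well plates and held 24 hours at 37°C, 5% CO2 before 72 hours of exposure to two-drug dose matrices, with DMSO typically at 0.2%. CellTiter-Glo 2.0 luminescence gave viability, which was converted to inhibition. Vehicle wells were set to 0 and blank wells to 1. Combination Emax is the second-highest inhibition in the matrix, and Bliss excess is the observed combination effect minus the expected EA + EB − EA·EB, where EA and EB are the single-agent effects.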

[2] = system: LU-139 (Small Cell Lung Carcinoma)
Procedure, shortened: as §1

[3] = system: MHH-PREB-1 (B-Cell Non-Hodgkin's Lymphoma)
Procedure, shortened: as §1

[4] = system: OVCAR-8 (Ovarian Carcinoma)
Procedure, shortened: as §1

[5] = system: MDA-MB-468 (Breast Carcinoma)
Procedure, shortened: as §1

NCI-H2795 (Mesothelioma) = system: NCI-H2795 (Mesothelioma)
Procedure, shortened: as §1

[6] = system: PCI-30 (Head and Neck Carcinoma)
Procedure, shortened: as §1

[7] = system: SW1271 (Small Cell Lung Carcinoma)
Procedure, shortened: as §1

[8] = system: CAL-54 (Kidney Carcinoma)
Procedure, shortened: as §1

[9] = system: 8305C (Thyroid Gland Carcinoma)
Procedure, shortened: as §1

[10] = system: SW626 (Colorectal Carcinoma)
Procedure, shortened: as §1

[11] = system: CTB-1 (B-Cell Non-Hodgkin's Lymphoma)
Procedure, shortened: as §1

[12] = system: K5 (Thyroid Gland Carcinoma)
Procedure, shortened: as §1

NB14 (Neuroblastoma) = system: NB14 (Neuroblastoma)
Procedure, shortened: as §1

[13] = system: LB771-HNC (Head and Neck Carcinoma)
Procedure, shortened: as §1

[14] = system: HARA (Squamous Cell Lung Carcinoma)
Procedure, shortened: as §1

[15] = system: 639-V (Bladder Carcinoma)
Procedure, shortened: as §1

NCI-H28 (Mesothelioma) = system: NCI-H28 (Mesothelioma)
Procedure, shortened: as §1

[16] = system: SW1116 (Colorectal Carcinoma)
Procedure, shortened: as §1

[17] = system: HO-1-u-1 (Oral Cavity Carcinoma)
Procedure, shortened: as §1

For `CC1(C)CCC(CN2CCN(c3ccc(C(=O)NS(=O)(=O)c4ccc(NCC5CCOCC5)c([N+](=O)[O-])c4)c(Oc4cnc5[nH]ccc5c4)c3)CC2)=C(c2ccc(Cl)cc2)C1` [Venetoclax] + C[C@@H]1COCCN1C2=NC(=NC(=C2)C3(CC3)[S@](=N)(=O)C)C4=C5C=CNC5=NC=C4 [AZD6738] (first compound max 1 µM, 7x7, partner max 10 µM), the “combination Emax” value [1] was 0.372, the “combination Emax” value [2] was 0.636 and the “combination Emax” value [3] was 0.795. The “combination Emax” value [4] was 0.712, the “combination Emax” value [5] was 0.624 and the “combination Emax” value (NCI-H2795 (Mesothelioma)) was 0.622. For the same compound, the “combination Emax” value [6] was 0.69, the “combination Emax” value [7] was 0.612 and the “combination Emax” value [8] was 0.768. The “combination Emax” value [9] was 0.681, the “combination Emax” value [10] was 0.638 and the “combination Emax” value [11] was 0.836. The “combination Emax” value [12] was 0.616, the “combination Emax” value (NB14 (Neuroblastoma)) was 1 and the “combination Emax” value [13] was 0.474. The “combination Emax” value [14] was 0.804, the “combination Emax” value [15] was 0.479 and the “combination Emax” value (NCI-H28 (Mesothelioma)) was 0.472. The “combination Emax” value [16] was 0.329 and the “combination Emax” value [17] was 0.853.
`CN(CCO)CC[C@H](CSc1ccccc1)Nc1ccc(S(=O)(=O)NC(=O)c2ccc(N3CCC([C@@H](O)c4ccccc4-c4ccc(Cl)cc4)CC3)cc2)cc1S(=O)(=O)C(F)(F)F` [AZD4320] + CCN(CCO)CCCOc1ccc2c(Nc3cc(CC(=O)Nc4cccc(F)c4)[nH]n3)ncnc2c1 [AZD2811] (first compound max 1 µM, 7x7, partner max 1 µM) was tested, and the “combination Emax” value [1] was 0.17, the “combination Emax” value [2] was 0.914 and the “combination Emax” value [3] was 0.2. The “combination Emax” value [4] was 0.651, the “combination Emax” value [5] was 0.885 and the “combination Emax” value (NCI-H2795 (Mesothelioma)) was 0.284. For the same compound, the “combination Emax” value [6] was 0.284, the “combination Emax” value [7] was 0.234 and the “combination Emax” value [8] was 0.163. For the same compound, the “combination Emax” value [9] was 0.386, the “combination Emax” value [10] was 0.825 and the “combination Emax” value [11] was 0.503. For the same compound, the “combination Emax” value [12] was 0.33, the “combination Emax” value (NB14 (Neuroblastoma)) was 1 and the “combination Emax” value [13] was 0.191. The “combination Emax” value [14] was 0.63, the “combination Emax” value [15] was 0.303 and the “combination Emax” value (NCI-H28 (Mesothelioma)) was 0.416. The “combination Emax” value [16] was 0.144 and the “combination Emax” value [17] was 0.824.
With `CC1(C)CCC(CN2CCN(c3ccc(C(=O)NS(=O)(=O)c4ccc(NCC5CCOCC5)c([N+](=O)[O-])c4)c(Oc4cnc5[nH]ccc5c4)c3)CC2)=C(c2ccc(Cl)cc2)C1` [Venetoclax] + CN(C)CCCOc1ccc(-c2ccc3ncc4c(c3c2)n(C2CCOCC2)c(=O)n4C)cn1 [AZD0156] (first compound max 1 µM, 7x7, partner max 1 µM) the “combination Emax” value [1] was 0.172, the “combination Emax” value [2] was 0.374 and the “combination Emax” value [3] was 0.14. The “combination Emax” value [4] was 0.219, the “combination Emax” value [5] was 0.377 and the “combination Emax” value (NCI-H2795 (Mesothelioma)) was 0.46. For the same compound, the “combination Emax” value [6] was 0.149, the “combination Emax” value [7] was 0.207 and the “combination Emax” value [8] was 0.239. The “combination Emax” value [9] was 0.369, the “combination Emax” value [10] was 0.111 and the “combination Emax” value [11] was 0.242. For the same compound, the “combination Emax” value [12] was 0.374, the “combination Emax” value (NB14 (Neuroblastoma)) was 0.98 and the “combination Emax” value [13] was 0.124. For the same compound, the “combination Emax” value [14] was 0.651, the “combination Emax” value [15] was 0.202 and the “combination Emax” value (NCI-H28 (Mesothelioma)) was 0.193. The “combination Emax” value [16] was 0.103 and the “combination Emax” value [17] was 0.413.
For `C=CCn1c(=O)c2cnc(Nc3ccc(N4CCN(C)CC4)cc3)nc2n1-c1cccc(C(C)(C)O)n1` [AZD1775] + O=C(c1cc(Cc2n[nH]c(=O)c3ccccc23)ccc1F)N1CCN(C(=O)C2CC2)CC1 [Olaparib] (first compound max 1 µM, partner max 10 µM), the “combination Emax” value [1] was 0.251, the “combination Emax” value [2] was 0.636 and the “combination Emax” value [3] was 0.76. The “combination Emax” value [4] was 0.797, the “combination Emax” value [5] was 0.484 and the “combination Emax” value (NCI-H2795 (Mesothelioma)) was 0.57. For the same compound, the “combination Emax” value [6] was 0.374, the “combination Emax” value [7] was 0.619 and the “combination Emax” value [8] was 0.679. The “combination Emax” value [9] was 0.506, the “combination Emax” value [10] was 0.573 and the “combination Emax” value [11] was 0.879. The “combination Emax” value [12] was 0.528, the “combination Emax” value (NB14 (Neuroblastoma)) was 0.986 and the “combination Emax” value [13] was 0.533. For the same compound, the “combination Emax” value [14] was 0.743, the “combination Emax” value [15] was 0.333 and the “combination Emax” value (NCI-H28 (Mesothelioma)) was 0.421. For the same compound, the “combination Emax” value [16] was 0.343 and the “combination Emax” value [17] was 0.644.
